How the values were obtained:
[1] = target: HCV NS3/4A protease complex, BMS strain (Hepatitis C virus genotype 1a, UniProt P27958); assay: FRET peptide assay to monitor HCV NS3/4A proteolytic activity, BMS strain; assay type: biochemical, HCV genotype 1a; conditions: read-out: IC50 against the NS3/4A BMS strain in the enzyme assay
From the text: (§1) HCV NS3 protease complexes, derived from the BMS strain, H77 strain or J4L6S strain, were generated, as described below. These purified recombinant proteins were generated for use in a homogeneous assay (see below) to provide an indication of how effective compounds of the present disclosure would be in inhibiting HCV NS3 proteolytic activity.
Serum from an HCV-infected patient was obtained from Dr. T. Wright, San Francisco Hospital. […]
In order to monitor HCV NS3/4A protease activity, an NS3/4A peptide substrate was used. […] The peptide also contains a fluorescence donor, EDANS, near one end of the peptide and an acceptor, DABCYL, near the other end. The fluorescence of the peptide is quenched by […] resonance energy transfer (RET) between the donor and the acceptor, but as the NS3 protease cleaves the peptide the products are released from RET quenching and the fluorescence of the donor becomes apparent.
The peptide substrate was incubated with one of the three recombinant NS3/4A protease complexes, in the absence or presence of a compound of the present disclosure. The inhibitory effects of a compound was determined by monitoring the formation of fluorescent reaction product in real time using a Cytofluor Series 4000. […]

[2] = target: T1, HCV NS3/4A protease complex, H77 strain (Hepatitis C virus genotype 1a, UniProt P27958, C1454S/C1711G); assay: FRET peptide assay to monitor HCV NS3/4A proteolytic activity, H77 strain; assay type: biochemical, HCV genotype 1a; conditions: H77 strain (1a genotype)
T1 construct: DNA encoding the recombinant HCV NS3/4A protease complex (amino acids 1027 to 1711) for these strains; inferred from pET21b vector and Ni-NTA purification; made in house; host or cells: Escherichia coli BL21 (DE3), pET21b
From the text: as §1
(§2) Serum from an HCV-infected patient was obtained from Dr. T. Wright, San Francisco Hospital. An engineered full-length cDNA (compliment deoxyribonucleic acid) template of the HCV genome (BMS strain) was constructed from DNA fragments obtained by reverse transcription-PCR(RT-PCR) of serum RNA (ribonucleic acid) and using primers selected on the basis of homology between other genotype 1a strains. From the determination of the entire genome sequence, a genotype 1a was assigned to the HCV isolate according to the classification of Simmonds et al. (See P Simmonds, K A Rose, S Graham, S W Chan, F McOmish, B C Dow, E A Follett, P L Yap and H Marsden, J. Clin. Microbiol., 31(6), 1493-1503 (1993)). […]

[3] = target: T2, HCV NS3/4A protease complex, J4L6S strain (Hepatitis C virus genotype 1b, UniProt O92972, C1454S/C1711G); assay: FRET peptide assay to monitor HCV NS3/4A proteolytic activity, J4L6S strain; assay type: biochemical, HCV genotype 1b; conditions: J4L6S strain (1b genotype)
T2 construct: DNA encoding the recombinant HCV NS3/4A protease complex (amino acids 1027 to 1711) for these strains; inferred from pET21b vector and Ni-NTA purification; made in house; host or cells: Escherichia coli BL21 (DE3), pET21b
From the text: as §1, §2

[4] = test system: human pancreatic chymotrypsin; assay: Specificity assay, chymotrypsin (pNA substrate); assay type: biochemical; conditions: read-out: Chymotrypsin activity in the specificity assays (IC50)
Protocol: The specificities of compounds of the present disclosure were determined against a variety of serine proteases: human neutrophil elastase (HNE), porcine pancreatic elastase (PPE) and human pancreatic chymotrypsin and one cysteine protease: human liver cathepsin B. In all cases, a 96-well plate format protocol using colorimetric p-nitroaniline (pNA) substrate or fluorometric Amino-Methyl-Coumarin (AMC) substrate, specific for each enzyme was used as described previously (PCT Patent Application No. WO 00/09543) with some modifications. All enzymes were purchased from Sigma or EMDbiosciences while the substrates were from Bachem.
Each pNA assay included a 2 h enzyme-inhibitor pre-incubation at room temperature followed by addition of substrate and hydrolysis to ˜15% conversion as measured on a Spectramax Pro microplate reader. The cathepsin B assay was initiated by adding substrate to a 10 min enzyme-inhibitor pre-incubation at room temperature, and the assay plate measured immediately using the Cytofluor Series 4000. Compound concentrations varied from 100 to 0.4 μM depending on their potency.
50 mM Tris(hydroxymethyl)aminomethane hydrochloride (Tris-HCl) pH 8, 0.5 M Sodium Sulfate (Na2SO4), 50 mM NaCl, 0.1 mM EDTA, 3% DMSO, 0.01% Tween-20 with: […]
The percentage of inhibition was calculated using the formula: [1−((UVinh−UVblank)/(UVctl−UVblank))]×100 […]

T2 sequence (O92972 1027-1711 C1454S/C1711G, one chain of several): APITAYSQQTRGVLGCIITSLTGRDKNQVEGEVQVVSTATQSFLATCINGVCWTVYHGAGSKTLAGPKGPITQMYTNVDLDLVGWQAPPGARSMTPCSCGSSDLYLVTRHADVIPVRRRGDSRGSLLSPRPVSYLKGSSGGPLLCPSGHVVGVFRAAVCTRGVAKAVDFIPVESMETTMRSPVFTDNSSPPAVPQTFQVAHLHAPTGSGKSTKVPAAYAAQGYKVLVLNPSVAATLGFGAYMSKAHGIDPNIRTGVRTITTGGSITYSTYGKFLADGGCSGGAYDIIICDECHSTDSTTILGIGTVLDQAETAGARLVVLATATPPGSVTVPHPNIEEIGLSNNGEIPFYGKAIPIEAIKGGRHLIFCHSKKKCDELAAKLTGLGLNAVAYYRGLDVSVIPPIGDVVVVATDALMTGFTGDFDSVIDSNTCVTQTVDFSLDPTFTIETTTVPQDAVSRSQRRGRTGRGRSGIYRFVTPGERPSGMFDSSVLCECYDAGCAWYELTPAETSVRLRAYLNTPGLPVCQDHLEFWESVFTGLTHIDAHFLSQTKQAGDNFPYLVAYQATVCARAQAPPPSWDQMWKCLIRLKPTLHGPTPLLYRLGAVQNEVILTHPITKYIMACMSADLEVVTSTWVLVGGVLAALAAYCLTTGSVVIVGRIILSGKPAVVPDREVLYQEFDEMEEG
HCV NS3/4A protease complex, BMS strain, sequence (P27958 1027-1711, one chain of several): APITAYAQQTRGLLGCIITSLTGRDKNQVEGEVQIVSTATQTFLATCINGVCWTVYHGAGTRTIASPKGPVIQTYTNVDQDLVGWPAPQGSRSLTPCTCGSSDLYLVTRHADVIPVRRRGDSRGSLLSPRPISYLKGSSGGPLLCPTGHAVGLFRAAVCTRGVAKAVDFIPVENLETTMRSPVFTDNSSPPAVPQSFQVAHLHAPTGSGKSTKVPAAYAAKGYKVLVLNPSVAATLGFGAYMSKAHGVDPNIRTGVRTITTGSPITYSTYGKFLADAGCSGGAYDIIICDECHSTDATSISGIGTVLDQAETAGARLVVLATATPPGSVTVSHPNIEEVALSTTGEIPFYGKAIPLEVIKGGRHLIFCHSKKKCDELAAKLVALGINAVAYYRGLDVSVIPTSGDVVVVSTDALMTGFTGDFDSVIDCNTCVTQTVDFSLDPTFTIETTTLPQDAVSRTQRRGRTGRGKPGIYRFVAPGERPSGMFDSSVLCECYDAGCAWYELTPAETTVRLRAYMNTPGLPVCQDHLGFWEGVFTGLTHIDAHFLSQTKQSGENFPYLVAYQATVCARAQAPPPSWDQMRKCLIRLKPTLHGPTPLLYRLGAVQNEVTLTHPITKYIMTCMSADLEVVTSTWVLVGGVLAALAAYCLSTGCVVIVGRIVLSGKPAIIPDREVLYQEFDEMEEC
T1 sequence (P27958 1027-1711 C1454S/C1711G, one chain of several): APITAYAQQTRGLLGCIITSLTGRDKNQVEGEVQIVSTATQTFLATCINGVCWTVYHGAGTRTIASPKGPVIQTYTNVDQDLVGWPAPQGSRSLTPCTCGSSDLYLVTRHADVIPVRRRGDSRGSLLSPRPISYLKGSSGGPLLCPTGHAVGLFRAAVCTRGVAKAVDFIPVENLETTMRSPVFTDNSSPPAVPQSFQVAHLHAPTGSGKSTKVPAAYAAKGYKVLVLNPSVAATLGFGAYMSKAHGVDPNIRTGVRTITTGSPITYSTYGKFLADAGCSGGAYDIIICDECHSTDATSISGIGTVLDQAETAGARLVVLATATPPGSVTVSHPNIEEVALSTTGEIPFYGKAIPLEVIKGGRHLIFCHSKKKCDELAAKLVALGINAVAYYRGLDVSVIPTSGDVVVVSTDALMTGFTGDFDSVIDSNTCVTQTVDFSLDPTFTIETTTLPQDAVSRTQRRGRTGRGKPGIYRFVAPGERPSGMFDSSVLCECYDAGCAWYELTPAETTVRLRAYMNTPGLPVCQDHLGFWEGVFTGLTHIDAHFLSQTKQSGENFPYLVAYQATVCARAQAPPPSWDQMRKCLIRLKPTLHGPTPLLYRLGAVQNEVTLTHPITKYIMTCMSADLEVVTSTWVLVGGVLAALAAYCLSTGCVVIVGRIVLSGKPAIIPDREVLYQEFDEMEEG

SMILES: CC(C)(C)OC(=O)N[C@H]1CN(C2CC2)CCC/C=C\C2C[C@@]2(C(=O)NS(=O)(=O)C2CC2)NC(=O)[C@@H]2C[C@@H](Oc3ccccn3)CN2C1=O (some centres unmarked) [Compound 1]
- IC50 [1]: 98 nM
- IC50 [2]: 18 nM
- IC50 [3]: 12 nM
- IC50 [4]: > 100000 nM

SMILES: CC(C)(C)OC(=O)N[C@H]1CCCOC/C=C\[C@@H]2C[C@@]2(C(=O)NS(=O)(=O)C2CC2)NC(=O)[C@@H]2C[C@@H](OCc3ccccc3)CN2C1=O [Compound 5, (1S,4R,6S,14S,18R, 7-cis)-18-benzyloxy-14-tert-butoxycarbonylamino-4-cyclopropanesulfonylaminocarbonyl-2,15-dioxo-3,16-diaza-10-oxatricyclo[14.3.0.04,6]nonadec-7-ene]
- melting point: 147 to 149 °C

Source: patent US8343477B2, “Inhibitors of hepatitis C virus” (Bristol-Myers Squibb Company, priority 2006, dated 2013)
